The test system of one series is human erythrocytes. The experiment in a line: Stimulation of nitric oxide synthesis from l-arginine in human erythrocyte suspension. Format: cell-based.
For series [1], the system named is mice epitrochlearis muscle. Put plainly: Glucose transport activity in epitrochlearis muscle. The class given is cell-based. The following applies: insulin 200 μU/ml, allimin 50 μg/ml, NAME 10 μg/ml, mean ± SD. The protocol:
(§1) The in vitro effect of allimin on glucose transport and glucose oxidation was compared with that of insulin in mice epitrochlearis muscle which is reported to be a model target tissue for insulin action. […] Addition of NAME to the incubation mixture inhibited the insulin-mimicking effect of allimin on both glucose transport and glucose oxidation. In another study, membranes from epitrochlearis muscle were prepared and the effect of allimin on the activation of the membrane tyrosine kinase and PI3 kinase were determined by incubating the membrane preparation with either insulin or allimin.
Mice epitochlearis muscle and the membrane of the muscle were prepared. Glucose transport activity was determined by incubating […] of epitochlearis muscle in Krebs-Ringer buffer, pH 7.4, in the presence of either insulin ([…]) or allimin ([…]) using a 2-deoxy D-^14C glucose. Glucose oxidation was determined by incubating […] of epitrochlearis muscle in Krebs-Ringer buffer, pH 7.4, in the presence of either insulin or allimin as indicated using U-14C glucose. Insulin- or allimin-induced activation of tyrosine kinase and PI3 kinase activities of the membrane preparation were determined using anti-phosphotyrosine antibody and PI3 kinase antibody, respectively, as described. Results shown in Table 4 are mean ±SD of 5 to 6 experiments using different animals.

The test system of series [2] is mice epitrochlearis muscle. The experiment in a line: Glucose oxidation in epitrochlearis muscle. Conditions: insulin 200 μU/ml, allimin 50 μg/ml, NAME 10 μg/ml, mean ± SD. The class given is cell-based. As to the method:
as §1
The effect of allimin on the oxidation of glucose was compared with that of insulin. […] Glucose oxidation was determined.
(§2) Mice epitochlearis muscle and the membrane of the muscle were prepared. Glucose transport activity was determined by incubating […] of epitochlearis muscle in Krebs-Ringer buffer, pH 7.4, in the presence of either insulin ([…]) or allimin ([…]) using a 2-deoxy D-^14C glucose. Glucose oxidation was determined by incubating […] of epitrochlearis muscle in Krebs-Ringer buffer, pH 7.4, in the presence of either insulin or allimin as indicated using U-14C glucose. […]

The test system of a further series is membrane tyrosine kinase. The experiment in a line: Membrane tyrosine kinase activation. Format: biochemical, mice. Conditions: insulin 200 μU/ml, allimin 50 μg/ml, none = 100, mean ± SD. The protocol:
as §1
The effect of allimin on the activation of epitrochlearis muscle membrane was determined using monoclonal anti-phosphotyrosine kinase antibody, Glu^80 Tyr^80 copolymer, and [^32P]-ATP and compared with that of insulin.
as §2

A further series relates to PI3 kinase. The experiment in a line: PI3 kinase activation of muscle membrane. Format: biochemical, mice. Conditions: insulin 200 μU/ml, allimin 50 μg/ml, none = 100, mean ± SD. The protocol:
as §1
The activation of PI3 kinase of mice epitrochlearis muscle membrane either by allimin or insulin was determined using PI3 kinase antibody. […] The PI3 kinase activity was determined by CHCl3—CH3OH extraction and HPLC.
as §2

Series [3] has as its system non-diabetic and alloxan-induced diabetic mice. Put plainly: Plasma nitric oxide level after oral administration in mice. Format: in vivo. The protocol: The effect of oral administration of allimin on the plasma nitric oxide level in diabetic and non-diabetic mice was determined using alloxan-induced diabetic mice as compared to normal non-diabetic mice. […] Allimin was orally administered (75 μg/kg body weight) to non-diabetic and alloxan-induced diabetic mice. The plasma nitric oxide level was measured on different days. Results were obtained from 10 mice in each group in triplicate. While the plasma nitric oxide level in the diabetic mice was 0.1±0.02 nmol/ml, the nitric oxide level in the non-diabetic mice was 0.75±0.05 nmol/ml (p<0.05). Upon oral administration of allimin (75 micrograms/kg body weight), the plasma nitric oxide level was increased to 0.45±0.05 nmol/ml within 24 hours and continued to increase thereafter, to a maximum of 0.8±0.1 nmol/ml on the third day. On the fourth day, the plasma nitric oxide level began to gradually decrease. On the sixth day, the plasma nitric oxide level returned to the pretreatment level in the diabetic mice.
A total of 60 mice were studied.

The subject of another series is EAC cells. The experiment in a line: Viability of EAC cells in peritoneal fluid. Format: in vivo, Swiss albino mice. As to the method: Experiments were performed to determine the effects of allimin on the viability of EAC cells, a measure of the anti-neoplastic activity of allimin. Total EAC count (dead+viable cells) in peritoneal fluid was determined after 14 days of injection of EAC in the allimin treated and the untreated mice. […] It was noted that 25% of the viable EAC in the fluid of allimin-treated mice were twice as large (size) as compared to those in the untreated mice. This increase in cell size is indicative of the onset of death and the loss of the ability to regulate osmotic pressure (Ballas (1999) Merck Manual, Merck Research Laboratories, Whitehouse Station, N.J., pp. 1002-1023). The cellular basis for the decreased viability of the carcinoma cells in the allimin-treated mice was tested using a DNA fragmentation assay (Liu et al. (2000) Nucleic Acids Res. 28:4180-4188).

Series [4] has as its system ADP-induced platelet aggregation. The experiment in a line: ADP-induced platelet aggregation in platelet rich plasma. Format: cell-based. The following applies: 40 nM, 30 minutes at 23° C., 6 μM ADP. As to the method: Given the role of nitric oxide in the function of platelets it is was determined whether allimin could modulate platelet aggregation. Platelet Rich Plasma (PRP) was isolated from citrated blood and incubated with […] Allimin for 30 minutes at 23° C. Subsequently, 6 μM adenosine 5′-diphosphate (ADP) was added and inhibition of ADP-induced platelet aggregation was recorded and compared with a control.

For series [5], the system named is alloxan-induced diabetic mice. The following applies: for duration of euglycemia / normal glucose levels after one dose: single oral bolus; for plasma glucose level: oral allimin.
Experimental: To determine whether the increased plasma nitric oxide level achieved through the oral administration of allimin would result in the decrease of elevated plasma glucose levels in diabetic mice, the plasma glucose level was continuously monitored. […] In a further study, diabetic mice were injected with insulin (200 μunits/25 g) in their hind leg muscle instead of oral administration of allimin.
Inbred albino mice of both sexes were raised in an institutional facility from birth to age 2 months and weighed between 20-25 grams. These mice were allowed free access to feed and sterile water under 12 hour cycles of alternating light and dark. A total of 60 mice were studied. Group I consisted of 20 mice that were divided into 4 subgroups of 5 mice per subgroup. […] Group II consisted of 20 mice that were divided in 4 groups, 5 mice in each subgroup. All of the mice were made diabetic, one of the diabetic subgroup of mice received insulin and the second diabetic subgroup received oral administration of allimin.
Alloxan was used to induce diabetes in mice in accordance with standard methods. Blood glucose levels were determined by using glucose oxidase strips in a glucometer. The mice were considered to be diabetic when the blood glucose level after overnight fasting were 250-300 mg/dl as compared to 70-80 mg/dl in non-diabetic mice. […] When these diabetic mice were fed ad libitum, the blood glucose level increased to 400-450 mg/dl after 2 hours of feeding.
For series [6], the system named is Ehrlich's ascitic carcinoma cells (EAC cells). The experiment in a line: Survival and body weight of mice with Ehrlich's carcinoma ascites. Conditions: daily allimin.
Text: In addition to normal or control mice, ascitic carcinoma was induced in Swiss albino mice by injecting approximately 10^6 Ehrlich's ascitic carcinoma cells (EAC cells) into the peritoneal cavity of mice (Hartveit et al. (1970) Acta. Pathol. Microbiol. Scand. 78:516-524). Animals were divided into two groups, one group receiving laboratory chow alone and the other receiving allimin (75 micrograms/kg body weight/day) along with laboratory chow. Animals in each group were given the respective diets for 10 days before both groups were injected with EAC cells. Dietary treatment then continued during ascites development such that an increase of an EAC cell count to 5×10^6 cells/ml was achieved.
The next series concerns mouse erythrocytes. Put plainly: Nitric oxide production in erythrocytes of mice injected with EAC cells. Conditions: for NO produced by erythrocytes: EAC mice, allimin 75 micrograms/kg/day oral.

“Also recorded” adds a separate entry of the source. Read-outs that look alike come from different tables or passages of the source. Ends that are not written are not given here.

Experimental for human erythrocytes: Stimulation of nitric oxide synthesis from l-arginine by allimin in human erythrocytes was shown by incubation of a human erythrocyte suspension with different concentrations of purified allimin.
Fractions (1.5 ml each) were collected and the ability of each fraction to stimulate nitric oxide synthesis from l-arginine in human erythrocytes was determined.
The stimulation of nitric oxide synthesis was determined by assaying 0.1 ml of aqueous extracts of garlic or benzene purified allimin or different fractions from the SEPHADEX® column to erythrocyte suspensions in Kreb's buffer, pH 7.4. The formation of nitric oxide in the reaction mixture was quantitated by the conversion of oxyhemoglobin to methemoglobin. Quantitative amounts of nitric oxide in the reaction mixture were confirmed independently by chemiluminescence technique. Briefly 1.0 ml of the reaction supernatant was treated with 15 mM (final concentration) of oxyhemoglobin under N2. The spectral changes at 650, 630 and 575 nm due to the conversion of oxyhemoglobin to methemoglobin was continuously monitored by using a scanning BECKMAN spectrophotometer to quantitate nitric oxide formation using greater than 99% percent pure preparation of nitric oxide.
Blood was collected from healthy male and female volunteers, between the ages of 25-50 years, who had not taken any medication for at least for 14 days prior to the donation of blood. The blood was anti-coagulated by adding 1 volume 130 mM sodium citrate to 9 volumes of blood, mixed by gentle inversion, and the erythrocyte suspension was prepared.
Experimental for mouse erythrocytes: Using a well-established mouse model for anti-neoplastic drug testing (Hartveit et al. (1970) Acta. Pathol. Microbiol. Scand. 78:516-524), the effects of oral administration of allimin on the production of nitric oxide in mouse erythrocytes was examined. Blood was drawn from the tail vein of Swiss albino mice (2 months of age) and was anti-coagulated by adding sodium citrate to the blood sample. The erythrocyte suspension was prepared according to standard methods (Ray et al. (1986) Biochim. Biophys. Acta. 856:421-427). […] The formation of nitric oxide in the reaction mixture was quantitated by the conversion of oxyhemoglobin to methemaglobin (Jia et al. (1996) Nature 380:221-226) and verified by chemiluminescence techniques (Sinha et al. (1999) Life Sci. 265:2687-2696). In addition to normal or control mice, ascitic carcinoma was induced in Swiss albino mice by injecting approximately 10^6 Ehrlich's ascitic carcinoma cells (EAC cells) into the peritoneal cavity of mice (Hartveit et al. (1970) Acta. Pathol. Microbiol. Scand. 78:516-524). Animals were divided into two groups, one group receiving laboratory chow alone and the other receiving allimin (75 micrograms/kg body weight/day) along with laboratory chow. Animals in each group were given the respective diets for 10 days before both groups were injected with EAC cells. Dietary treatment then continued during ascites development such that an increase of an EAC cell count to 5×10^6 cells/ml was achieved.
For the preparation of erythrocyte suspensions from mice, blood was drawn from the tail vein and anti-coagulated by adding sodium citrate to the blood sample and a suspension was made as described by Ray et al. ((1986) Biochim. Biophys. Acta 856:421-427).

Take `COC(=O)[C@@H](N)CCCNC(=N)N[N+](=O)[O-]` [NAME, NG-nitro L-arginine methyl ester, reference compound]: the “inhibition of allimin-stimulated nitric oxide synthesis” value in the series with human erythrocytes (10 μM NAME added to reaction mixture with allimin) is listed as “completely inhibited; also recorded: complete inhibition”.

For the molecule “Allimin (XMIPTNGEGLYAGQSLDVEQYKFIMRPDDNLVXYX; X: residue not identified in the source; listed as Allium sp.)”, in the series with human erythrocytes (human erythrocyte suspension), the “concentration at which synthesis of nitric oxide was maximally stimulated” value is recorded as 8 nM. For the same molecule, in the series with human erythrocytes (purification step of garlic extract, stimulation of NO synthesis), the “Specific Activity (nmol NO/mg/h)” value is on record as 563.75 nmol NO/mg/h. In series [1], this molecule returned a Glucose transport of 82 ± 6 nmol/g protein/minute. In addition, in [2], the “Glucose Oxidation” value is recorded as 306 ± 82 nmol/g protein/minute. Further, in the series on membrane tyrosine kinase, the Tyrosine kinase activation is recorded as 215 ± 10 % activation. This molecule also came in with a PI3 kinase activation with PI3 kinase of 187 ± 12 % activation. The “duration of elevation of plasma nitric oxide” value in series [3] (diabetic mice, one time oral bolus dose) is “about five days; also recorded: four to five days”. Further, the “day plasma nitric oxide level returned to pretreatment level” value in [3] (diabetic mice, single oral 75 micrograms/kg) is “sixth day”. Also, in series [3] (diabetic mice, single oral 75 micrograms/kg, third day), the “plasma nitric oxide level, maximum” value turned out to be 0.8 ± 0.1 nmol/mL. For the same molecule, in [3] (diabetic mice, single oral 75 micrograms/kg, within 24 hours, pretreatment 0.1±0.02), the “plasma nitric oxide level” value was determined as 0.45 ± 0.05 nmol/mL. Also, the “day plasma nitric oxide level decreased to pretreatment level” value in series [3] (non-diabetic mice, oral feeding) is reported as “fourth day”. In the series on EAC cells (14 days after injection of EAC), the “total EAC count (dead+viable cells) in peritoneal fluid” value is given as 7×10^6 cells/ml. The “dead EAC count in peritoneal fluid” value in the series with EAC cells (14 days after injection of EAC, untreated 3×10^4) is on record as 2×10^5 cells/ml. Also, in the series with EAC cells (oral allimin), the “pathway of EAC cell death (DNA fragmentation assay)” value is listed as “induced the necrotic pathway”. Moreover, the “viable EAC twice as large as in untreated mice” value in the series on EAC cells (peritoneal fluid of treated mice) is on record as 25%. In series [4], the “inhibition of ADP-induced platelet aggregation” value is “potent inhibitor of platelet aggregation”. In addition, the “duration of euglycemia / normal glucose levels after one dose” value is “up to four or five days” in series [5] (diabetic animals) and “four to five consecutive days” in series [5] (diabetic animals, listed as allimin). For the same molecule, the plasma glucose level in series [5] (diabetic mice, next four days) was 120 to 130 mg/dL; in series [5] (diabetic mice, sixth day), “above 350 mg/dl”; in [5] (diabetic mice, within next 12 hours, initial 470±20), 120 ± 10 mg/dL. Moreover, the “survival at 20 days” value in series [6] (controls succumbed by day 20) is “survived the EAC carcinogenic insult at 20 days”. The “mice surviving at least 40 days” value in series [6] (p<0.01) is recorded as “Ten percent”. The “nitric oxide production from erythrocytes restored to” value with mouse erythrocytes (allimin fed 10 days after the carcinogenic insult, 4.02% without) was 92.78%. In addition, the “NO produced by erythrocytes” value in the series on mouse erythrocytes (day 1) is reported as 0.569 ± 0.02 nmol NO produced/10^8 cells/hour; in the series with mouse erythrocytes (day 5) it was 0.392 ± 0.01 nmol NO produced/10^8 cells/hour; with mouse erythrocytes (day 10), 0.408 ± 0.02 nmol NO produced/10^8 cells/hour; with mouse erythrocytes (day 15), 0.440 ± 0.01 nmol NO produced/10^8 cells/hour; in the series with mouse erythrocytes (day 20), 0.498 ± 0.02 nmol NO produced/10^8 cells/hour; in the series with mouse erythrocytes (day 25) it was 0.532 ± 0.02 nmol NO produced/10^8 cells/hour. For the same molecule, the “NO produced by erythrocytes” value in the series with mouse erythrocytes (day 30) is recorded as 0.528 ± 0.03 nmol NO produced/10^8 cells/hour. Further, the “reduction of nitric oxide production in erythrocytes” value in the series on mouse erythrocytes (twenty days after EAC injection, dietary allimin, 86.72% without) came out at 12.48%.

In [1], “Insulin: Insulin (trade name HUMULIN, obtained from Eli Lilly) [reference compound]” had a Glucose transport of 75 ± 4 nmol/g protein/minute. Also, the “Glucose Oxidation” value in series [2] was found to be 278 ± 80 nmol/g protein/minute. For the same molecule, the Tyrosine kinase activation in the series with membrane tyrosine kinase is given as 210 ± 18 % activation. In addition, in the series on PI3 kinase, the PI3 kinase activation came out at 155 ± 10 % activation. The “duration of control of hyperglycemia” value in series [5] (diabetic animals, single intramuscular injection) is “less than 24 hours”. Moreover, the “blood glucose level after injection” value in series [5] (diabetic mice, 200 μunits/25 g in hind leg muscle, within next 24 hours) worked out at 350 ± 20 mg/dL. The “effect of oral administration on elevated blood glucose level” value in series [5] (diabetic mice, oral) is “no effect”.

Values taken from patent US20070270348A1, “Compositions and Methods for Modulating Insulin-Activated Nitric Oxide Synthase” (priority 2004, published 2007).
